Experimental data from patent publication US20190015395A1, “TACROLIMUS FOR TREATING TDP-43 PROTEINOPATHY” (CHRONOS THERAPEUTICS LIMITED, priority 2016, published 2019).

Legend:
[1] = in vivo, 2 mg/kg/day
Protocol: Based on pharmacokinetic analysis, a tacrolimus dose of 2 mg/kg/day in the mouse is believed to correspond to a human oral dose of about 0.33-0.44 mg/day oral for a 70 kg person.

[2] = system: C. elegans expressing GFP-TDP-43(CTF) (C-terminal fragment of human TDP-43, aas 208-414) in the body wall muscle; test: C. elegans lifespan assay, strain expressing TDP-43 C-terminal fragment; assay type: in vivo; conditions: 10 μg/ml in the NGM agar, vs DMSO vehicle, p<0.005
Description: C-terminal fragments of TDP-43 are associated with pathology in ALS and FTD patients. In particular, proteolytic cleavage at Arg208 has been reported to generate a pathogenic C-terminal fragment (see Wang et al., 2013, J. Biol. Chem. 288(13):9049-57 and Igaz et al., 2009, J. Biol. Chem. 284(13):8516-24; the disclosures of which are incorporated herein by reference). Therefore, a transgenic C. elegans strain was generated that expresses the C-terminal fragment (CTF) of human TDP-43 (aas 208-414) in the body wall muscle, fused via a short linker region to the C-terminus of a GFP tag. Expression is under the control of the myo-3 promoter. […]
C. elegans cultures were synchronised by incubating an asynchronous culture in basic sodium hypochlorite solution to kill everything but the bleach-resistant mature eggs. […] From this point on, each ageing population was inspected daily and viability assessed by counting the number of dead worms.
(§1) The cumulative number of dead worms for each population was used to generate a survival/viability plot to determine chronological lifespan (CLS). Survival was analysed using the Kaplan-Meier log-rank survival analysis method, using the Online Application for Survival (OASIS; see http://sbi.postech.ac.kr/oasis). […]

[3] = system: TNF-α; test: Blood TNF-α levels in healthy human volunteers; assay type: in vivo
Protocol: (§2) A hard gelatine capsule was filled with the following composition:
(§3) One capsule as above containing 0.3 mg tacrolimus was administered daily to healthy human volunteers for three successive days. […] Similarly, no change in TNF-α levels occurred as a result of administering 0.6 mg daily of tacrolimus to healthy volunteers. The average trough level of tacrolimus (level after 24 hours of administration of each dose) observed was approximately 220 pg/mL.

[4] = system: TDP-43(Q331K) mice; test: Rotarod testing of TDP-43(Q331K) transgenic mice; assay type: in vivo, mouse
[5] = system: control (GFP-expressing) C. elegans; test: C. elegans lifespan assay, control strain expressing GFP only; assay type: in vivo; conditions: 10 μg/ml in the NGM agar, vs DMSO vehicle, p<0.01
Protocol: A control C. elegans strain was generated in the same background, in which the GFP reporter only is expressed under the control of the myo-3 promoter.
These strains were crossed with worms carrying a mutation in the bus-5 gene, which confers drug-sensitivity, to produce drug-sensitive strains expressing GFP alone (“GFP”) or expressing the GFP-TDP-43 CTF fusion protein (“GFP-TDP-43(CTF)”).
C. elegans cultures were synchronised by incubating an asynchronous culture in basic sodium hypochlorite solution to kill everything but the bleach-resistant mature eggs. Approximately 300 eggs were added on to agar plates and then allowed to hatch and develop (to produce approximately 200 worms) in the presence of the test compound (or vehicle) and bacterial food source. […] From this point on, each ageing population was inspected daily and viability assessed by counting the number of dead worms.
as §1

[6] = Tacrolimus blood levels in healthy human volunteers after capsule; assay type: in vivo
Protocol: as §2, §3

C=CC[C@@H]1/C=C(\C)C[C@H](C)C[C@H](OC)[C@H]2O[C@@](O)(C(=O)C(=O)N3CCCC[C@H]3C(=O)O[C@H](/C(C)=C/[C@@H]3CC[C@@H](O)[C@H](OC)C3)[C@H](C)[C@@H](O)CC1=O)[C@H](C)C[C@@H]2OC [tacrolimus]
human oral dose corresponding to the mouse dose [1]: 0.33 to 0.44 mg/day | lifespan (survival) of worms expressing the TDP-43 C-terminal fragment [2]: partially rescuing the lifespan deficit | lifespan (survival) of worms expressing the TDP-43 C-terminal fragment ([2]; listed as Tacrolimus): significant increase in lifespan | change in blood TNF-α levels ([3]; 0.3 mg capsule daily for three successive days): No significant changes | change in TNF-α levels ([3]; 0.6 mg daily): no change | rotarod latency / decline in motor function ([4]; 0.25 mg/kg per day p.o., 60 weeks from 3 weeks of age, vs vehicle): delays the progression of motor decline | rotarod latency / decline in motor function ([4]; 0.25 mg/kg per day p.o., 60 weeks from 3 weeks of age, vs vehicle, listed as Tacrolimus): delays the progression of the decline in rotarod performance | rotarod latency / decline in motor function ([4]; 1.25 mg/kg per day p.o., 60 weeks from 3 weeks of age, vs vehicle): delays the progression of motor decline | rotarod latency / decline in motor function ([4]; 1.25 mg/kg per day p.o., 60 weeks from 3 weeks of age, vs vehicle, listed as Tacrolimus): delays the progression of the decline in rotarod performance | rotarod latency / decline in motor function ([4]; 2.5 mg/kg per day p.o., 60 weeks from 3 weeks of age, vs vehicle): delays the progression of motor decline | rotarod latency / decline in motor function ([4]; 2.5 mg/kg per day p.o., 60 weeks from 3 weeks of age, vs vehicle, listed as Tacrolimus): delays the progression of the decline in rotarod performance | lifespan (survival) of control GFP-expressing worms [5]: increasing the lifespan | lifespan (survival) of control GFP-expressing worms ([5]; listed as Tacrolimus): significant increase in lifespan | average peak level ([6]; 0.3 mg capsule daily for three days, healthy volunteers): approximately 3700 pg/mL | expected trough level ([6]; two capsules simultaneously, single dose of 0.6 mg): about 440 pg/mL

Nc1nc2ccc(OC(F)(F)F)cc2s1 [riluzole]
rotarod latency / decline in motor function ([4]; 10 mg/kg p.o. per day in water, up to 60 weeks, vs water-treated control): delays the progression of the decline in rotarod performance
